Patent US20240391940A1, “FUSED RING-CONTAINING COMPOUND, APPLICATION THEREOF, AND COMPOSITION CONTAINING SAME” (GenEros Biopharma Ltd., priority 2020, published 2024)
“And” between values parts separate entries of the source, which are not always exact repeats. Equal values may be shown once.

How the values were obtained:
[1] = system: Apoe KO mouse atherosclerosis model; experiment: Atherosclerosis model: aortic plaque En-face staining and plaque area; assay type: in vivo, C57BL/6 Apoe KO mice
Description: (§1) Method: Apoe KO mice were tested for basal blood lipid levels and divided into a normal control group and a high-fat group. After 8 weeks of housing, the mice from the high-fat group were divided into 4 groups of about 8: a normal diet group (Chow), a high-fat diet model group (HFD), an Atorvastatin positive group (HFD+atorvastatin 5 mpk, QD), and a GEN1-284s group (284-60 mpk, QD). Oral administration was performed for 8 consecutive weeks, and the effect of the compound on the following indicators in Apoe KO mice was observed: 4 blood lipid tests (TC, TG, HDL-C and LDL-C), aortic plaque En-face staining, and pathological oil red staining of the cardiac outflow tract.
(§2) Mice from the groups except for the normal diet control group (Chow) were fed with high-fat feed every day for […]. From week 9, each group was orally administered solvent or a corresponding test compound, and body weight data were recorded every day for 8 consecutive weeks. After the first 8 weeks' high-fat diet, blood samples were taken and centrifuged to separate serum, and the serum was tested for blood lipid levels (TCHO, TG, LDL-C and HDL-C). The mice were randomly grouped according to the TCHO results and body weight. During the subsequent 8 weeks of administration, blood lipid tests (TCHO, TG, LDL-C and HDL-C) were run once every 4 weeks.
At the end of the experiment, the mice were euthanized by CO2 inhalation, and their hearts and aortas (from the aortic arch to the iliac artery) were isolated. The isolated artery was dissected longitudinally from the aortic arch to the iliac artery, fixed in 4% paraformaldehyde for 30 min, synchronized with 60% isopropanol for 10 min, then stained in 60% oil red for 30 min, and then washed with 60% isopropanol 3 times for 5 min each time. Finally, the stained aorta was washed with deionized water and photographed. The proportion of red plaque areas was measured using Image Pro Plus 6.0 (Media Cybernetics, MD, US).

[2] = system: Apoe KO mouse atherosclerosis model; experiment: Atherosclerosis model: plaques in the cardiac (left ventricular) outflow tract; assay type: in vivo, C57BL/6 Apoe KO mice
Description: as §1, §2
Mouse heart samples were fixed overnight in 4% paraformaldehyde solution and dehydrated in sucrose solution. Then, the samples were embedded with OCT (Sakura, Japan) under a stereo microscope and made into 10 μm frozen sections. The sections were stained with oil red ORO and then subjected to routine pathological examinations. Images of the outflow tract were acquired under an optical microscope at 4× magnification, and high-quality morphological observations were carried out using an eyepiece with 20× magnification. The percentage of intimal lesions in the cardiac outflow tract was calculated. The detection criteria followed the criteria for histological classification of human atherosclerotic disease, which are described in detail below:
The area of plaques in the left ventricular outflow tract was measured using a microscope, and the proportion of plaques in the left ventricular outflow tract was calculated; this value reflects the degree of stenosis in the cardiac outflow tract vessel.

[3] = system: Apoe KO mouse atherosclerosis model; experiment: Atherosclerosis model (Apoe KO mice, high-fat diet): blood lipid tests TCHO, TG, LDL-C, HDL-C; assay type: in vivo, C57BL/6 Apoe KO mice; parameters: blood lipids (CHO) in Apo E−/− mice / blood lipids (TG) in Apo E−/− mice / blood lipids (HDL-C) in Apo E−/− mice / blood lipids (LDL-C) in Apo E−/− mice: unit not given here; conditions: for blood lipids (CHO) in Apo E−/− mice / blood lipids (HDL-C) in Apo E−/− mice / blood lipids (LDL-C) in Apo E−/− mice / blood lipids (TG) in Apo E−/− mice: HFD + ATV-5 mpk, 5 mg/kg
Description: as §1, §2
Mice were fasted overnight, and blood (150 μL) was collected via mandibular blood sampling or eye ball removal (for endpoint only) and left at room temperature for 2 h. The blood was centrifuged at 4° C. at 7000 rpm for 10 min, and serum was pipetted, quick-frozen in dry ice and then stored at −80° C. before analysis. The serum was tested for the biochemical indicators TCHO, TG, LDL-C and HDL-C using kits and a microplate reader.

[4] = system: STAT5 Y694 phosphorylation; experiment: HTRF experiment: STAT5 Y694 phosphorylation in Hela cells; assay type: cell-based, Human; conditions: 10 μM compound, 2 h pretreatment, interferon stimulation 30 min
Description: A multifunctional microplate reader (TECAN; […] F PLEX); 96-well cell culture plates (Bioyong), HTRF 384-well low volume plates (Cisbio; Cat #66PL384025); Human interferon 0 (IFN-0) (GenScript; Cat #P01574), STAT5 phospho-Y694 kits (Cisbio; Cat #64AT5PEG).
Hela cells (American Type Culture Collection (ATCC), CCL-2) were cultured in a 96-well plate with DMEM containing 5% fetal bovine serum at a density of 3×10^4 cells/well. The cells were incubated overnight in a 37° C., 5% carbon dioxide humidified incubator. The next day, the original DMEM in the 96-well plate was blotted, and equal volumes of medium containing different concentrations of compounds (stock solutions of compounds prepared with dimethyl sulfoxide were diluted to desired concentrations in medium) were added for 2 h of pretreatment. The plate was left to stand in a 37° C. incubator. Human interferon 0 was then added to a final concentration of 10 nM for stimulation. The plate was gently shaken so the contents were well mixed, and the plate was then left to stand in a 37° C. incubator for 30 min.
The medium was removed, and the plate was washed once with an appropriate volume of PBS and then blotted dry. Then 1×lysis buffer was added at 40 μL/well, and the plate was left to stand at room temperature for 30 min (preparation of 1 mL of 1× lysis buffer: mixing well 740 μL of ddH2O with 250 μL of 4× lysis buffer and […]). After 30 min, the cells were repeatedly pipetted until the lysis buffer was not viscous (bubbles were avoided) so that sufficient lysis was achieved.
In an HTRF 384-well low volume plate, 4 μL of an antibody premix (containing two antibodies: Cryptate and d2: the two antibodies were each 20-fold diluted with detection buffer and were then mixed in equal volume to form the antibody premix) and 16 μL of the cell lysate were added to each well. The plate was sealed with a sealing membrane and then incubated overnight at room temperature in a dark place.
After the overnight incubation, signals at 665 nm and 620 nm were detected separately on a multifunctional microplate reader. The calculation formula for the STAT5 Y694 phosphorylation assay is: Ratio=[(signal 665 nm)/(signal 620 nm)]×10^4. A dimethyl sulfoxide-only treatment group was set as a negative control (RatioNegative), and an interferon 0 stimulation group without compound addition was set as a positive control (RatioPositive). The inhibition rates of different samples against STAT5 Y694 phosphorylation were normalized: inhibition rate=[1−(RatioExperiment−RatioNegative)/(RatioPositive−RatioNegative)]×100.

[5] = Apoe KO mice, high-fat diet, atorvastatin 5 mpk QD oral

CC(C)c1c(C(=O)Nc2ccccc2)c(-c2ccccc2)c(-c2ccc(F)cc2)n1CC[C@@H](O)C[C@@H](O)CC(=O)O [ATV]
atherosclerotic plaques in mice (proportion of arterial plaque area) ([1]; HFD + ATV-5 mpk, PO QD 8 W, individual mice, 5 mg/kg, in % (unit assumed)): 10.98 and 13.52 and 8.609 and 9.551 and 9.286 and 13.92 and 13.86 | plaques in the cardiac outflow tracts of mice (proportion of plaques in the left ventricular outflow tract) ([2]; HFD + ATV-5 mpk, PO QD 8 W, individual mice, 5 mg/kg, in %): 1.923 and 8.46 and 9.071 and 7.844 and 1.618 and 3.771 and 2.279 and 8.38 | blood lipids (CHO) in Apo E−/− mice ([3]; Time 1, individual mice): 1.195 and 1.061 and 1.217 and 1.075 and 1.359 and 0.7849 and 0.5037 | blood lipids (HDL-C) in Apo E−/− mice ([3]; Time 1, individual mice): 0.4304 and 1.163 and 1.735 and 1.563 and 1.618 and 1.29 and 1.027 | blood lipids (LDL-C) in Apo E−/− mice ([3]; Time 1, individual mice): 1.101 and 1.061 and −0.07821 and 1.123 and 1.296 and 0.676 and 1.006 | blood lipids (TG) in Apo E−/− mice ([3]; Time 1, individual mice): 1.038 and 0.845 and 1.136 and 1.282 and 0.875 and 1.001 and 0.9307 | blood lipids (CHO) in Apo E−/− mice ([3]; Time 2, individual mice): 0.8468 and 0.9207 and 0.799 and 1.023 and 0.6043 and 0.8602 and 0.8475 and 0.8932 | blood lipids (HDL-C) in Apo E−/− mice ([3]; Time 2, individual mice): 1.178 and 0.769 and 0.5861 and 0.7669 and 0.6443 and 0.8023 and 0.8584 and 0.9664 | blood lipids (LDL-C) in Apo E−/− mice ([3]; Time 2, individual mice): 0.7237 and 0.8132 and 0.6614 and 1.342 and 0.603 and 0.5797 and 1.152 and 1.234 | blood lipids (TG) in Apo E−/− mice ([3]; Time 2, individual mice): 1.204 and 0.9447 and 1.095 and 1.111 and 0.7477 and 0.9934 and 0.7632 and 0.9336 | blood lipids (CHO) in Apo E−/− mice ([3]; Time 3, individual mice): 1.237 and 0.9298 and 1.587 and 1.424 and 1.118 and 0.7614 and 1.278 and 1.057 | blood lipids (HDL-C) in Apo E−/− mice ([3]; Time 3, individual mice): 0.713 (2×) and 0.8416 and 0.6487 and 1.292 and 1.1791 and 0.8576 (2×) | blood lipids (LDL-C) in Apo E−/− mice ([3]; Time 3, individual mice): 0.9753 and 0.8023 and 0.8722 and 0.6477 and 0.7655 and 0.4564 and 1.218 and 1.421 | blood lipids (TG) in Apo E−/− mice ([3]; Time 3, individual mice): 1.341 and 0.9611 and 1.459 and 1.456 and 0.9501 and 1.063 and 1.577 and 0.6584 | blood lipids (CHO) in Apo E−/− mice ([3]; Time 4, individual mice): 1.183 and 1.199 and 1.344 and 1.673 and 1 and 1.22 and 0.7566 and 1.398 | blood lipids (HDL-C) in Apo E−/− mice ([3]; Time 4, individual mice): 0.9522 and 1.062 and 0.6434 and 4.724 and 0.6654 and 1.371 and 0.6875 and 0.8419 | blood lipids (LDL-C) in Apo E−/− mice ([3]; Time 4, individual mice): 1.05 and 1.675 and 0.9086 and 0.8511 and 1.319 and 0.3604 and 0.6019 and 1.123 | blood lipids (TG) in Apo E−/− mice ([3]; Time 4, individual mice): 1.516 and 1.429 and 2.38 and 2.165 and 1.213 and 1.476 and 0.5106 and 0.9949

N#Cc1ccnc2ccc(CC(=O)N3CCC(n4c(=O)[nH]c5cccc(C(F)(F)F)c54)CC3)cc12 [GEN1-304, 6-(2-Oxo-2-(4-(2-oxo-7-(trifluoromethyl)-2,3-dihydro-1H-benzo[d]imidazol-1-yl)piperidin-1-yl)ethyl)quinoline-4-carbonitrile]
Inhibition rate @10 μM [4]: 40.76%

COc1ccc2cc(CC(=O)N3CCC(n4c(=O)[nH]c5cccc(C(F)(F)F)c54)CC3)ccc2n1 [GEN1-305]
Inhibition rate @10 μM [4]: 63.05%

O=C(Cc1ccc2ncccc2c1Cl)N1CCC(n2c(=O)[nH]c3cccc(C(F)(F)F)c32)CC1 [GEN1-306, 1-(1-(2-(5-Chloroquinolin-6-yl)acetyl)piperidin-4-yl)-7-(trifluoromethyl)-1,3-dihydro-2H-benzo[d]imidazol-2-one]
Inhibition rate @10 μM [4]: 95.64%

O=C(Cc1ccc2ncc(C(F)(F)F)cc2c1)N1CCC(n2c(=O)[nH]c3cccc(C(F)(F)F)c32)CC1 [GEN1-312]
Inhibition rate @10 μM [4]: 55.50%

CC(C)c1c(C(=O)Nc2ccccc2)c(-c2ccccc2)c(-c2ccc(F)cc2)n1CC[C@@H](O)C[C@@H](O)CC(=O)O [atorvastatin, reference compound]
Proportion of the arterial plaque area [1, 5]: significantly reduced | Left ventricular outflow tract plaques [2, 5]: significantly fewer plaques than the HFD group | Effect on dyslipidemia ([3]; Apoe KO mice, high-fat diet, atorvastatin 5 mpk QD oral, 8 weeks): dyslipidemia was relieved
